In patent US12329827B2, “Devices, compositions and related methods for accelerating and enhancing bone repair” (THE REGENTS OF THE UNIVERSITY OF MICHIGAN, priority 2015, dated 2025):

Legend:
[1] = test system: murine mandibular DO model; assay: Mandibular distraction osteogenesis model, DFO injections into the regenerate gap (Example I); assay type: in vivo, Sprague-Dawley rats
Description: The effectiveness of DFO in enhancing regenerate vascularity at a full consolidation period (28 days) in a murine mandibular DO model was established. To investigate whether this augmentation in vascularity would function to accelerate consolidation without compromising regenerate quality or strength, consolidation periods prior to μCT imaging and biomechanical testing (BMT) were progressively shortened. Three time points (14 d, 21 d and 28 d) were selected and six groups of Sprague-Dawley rats (n=60) were equally divided into control (C) and experimental (E) groups for each time period. Each group underwent external fixator placement, mandibular osteotomy, and a 5.1 mm distraction. During distraction, the experimental groups were treated with DFO injections into the regenerate gap. After consolidation, mandibles were imaged and tension tested to failure. ANOVA was conducted between groups, and p<0.05 was considered statistically significant. […] The benefit of treatment was further substantiated by a striking 100% increase in the number of clinically appreciated bony unions at this early time-period (C:4/10 vs. E:8/10, FIG. 2) (see, e.g., Donneys, Alexis, et al., Bone 55.2 (2013): 384-390).

[2] = test system: irradiated mandibular fractures; assay: Irradiated mandibular fracture, implanted nano-DFO vs standard DFO (Example V); assay type: in vivo, Rats; settings: radiated fracture, 40-day healing
Protocol: Rats (n=44) were divided into 4 groups. Fracture, radiated fracture, radiated fracture with standard DFO and radiated fracture with nano-DFO. Radiated groups received radiotherapy 2 weeks prior to mandibular osteotomy. The nano-DFO group received implantation of the drug at the time of surgery. Following a 40-day healing period, mandibles were assessed for bony-union, imaged with μCT, and mechanically tested to failure. ANOVA was used for comparison and (p<0.05).

[3] = test system: human umbilical vein endothelial (HUVEC) cells exposed to radiation; assay: Tubule formation of irradiated HUVEC cells in Matrigel (Example III); assay type: cell-based
Protocol: The effect of DFO on endothelial cells exposed to radiation in vitro was investigated. […] Four groups of human umbilical vein endothelial (HUVEC) cells (control, radiated, radiated+low dose DFO, or radiated+high dose DFO) were incubated in Matrigel and video recorded in real-time over 12 hours. DFO groups received either 25 or 50 μM doses at the time of incubation. Tubule formation was photographed at 100× magnification every four hours. Tubule numbers between groups were compared using ANOVA with p≤0.05 considered statistically significant. A severe diminution in endothelial tubule formation after radiotherapy was observed. Specifically, tubule formation was diminished 30%, 34%, and 27% respectively, compared to control values (p=0.01, at 4, 8, and 12 hours). The effects of radiation were strikingly remediated by treatment with high-dose DFO. […] These findings were clearly observed with real-time recording. […] This evidence supports the contention that DFO strongly remediates the effects of radiation on endothelial tubule formation (see, e.g., Donneys, Alexis, et al., Plastic and Reconstructive Surgery 131.5S (2013): 141).

[4] = test system: irradiated mandible fracture; assay: Fracture healing in the irradiated mandible, DFO injected into callus site (Example II); assay type: in vivo, rats
Description: The effects of radiation on bone formation and healing are mediated through the mechanisms of vascular damage, direct cellular depletion and diminished function of osteocytes. Over time, this accumulated damage predisposes patients to the debilitating problem of late pathologic fractures and non-unions. Here, the use of DFO was employed to bolster the vascular response during bone healing in this setting. It was posited that the untoward effects of radiotherapy on vascular density and osteocyte count and ultimately the mineralization and biomechanical strength of our bone would be improved with the addition of DFO. 12 rats received fractionated radiotherapy to left hemi-mandibles. After recovery, fracture repair ensued with external fixator placement and mandibular osteotomy. DFO was injected into the callus site every other day from post-operative days 4-12. A 40-day healing period was allowed prior to vessel perfusion, PCT, BMT, and histologic processing. Mandibles were dissected and gross union was assessed. Union was defined as bony bridging and the absence of motion across the fracture site. Outcome data was analyzed with ANOVA, and p≤0.05 was statistically significant. The DFO group was compared with two other groups: fracture-Fx and radiated fracture-XFx (n=12, 12).

## CC(=O)N(O)CCCCCNC(=O)CCC(=O)N(O)CCCCCNC(=O)CCC(=O)N(O)CCCCCN [DFO, N′-{5-[Acetyl(hydroxy)amino]pentyl}-N-[5-({4-[(5-aminopentyl)(hydroxy)amino]-4-oxobutanoyl}amino)pentyl]-N-hydroxysuccinamide]
[1]; 14 days of consolidation
  Bone Mineral Density (BMD) vs non-treated controls: significant increases
  Bone Volume Fraction (BVF) vs non-treated controls: significant increases
  Ultimate Load (UL) vs non-treated controls: significant increases
  increase in the number of bony unions vs non-treated controls: 100%
[1]; 14 days of consolidation, unions/animals
  number of clinically appreciated bony unions: 8/10
[1]; 14 days with treatment
  BVF, BMD, Yield and UL at 14 days vs fully consolidated 28 d control group: comparable
[1]; 28 days
  bony union rate: 100%
[2]
  Bony Unions: 67%
  radiation-induced decreases in all metrics: remediated
[3]; high dose DFO (50 μM), 4, 8 and 12 hours, p=0.02
  tubule formation vs radiated cells: significantly increased
[3]; high dose DFO (50 μM), each time point
  tubule formation vs normal (control) levels: reached or exceeded normal levels
[3]; high-dose DFO (50 μM), real-time recording
  time of incubation to organization of cultures: ≤ 2 h
[4]; 40-day healing
  BMT and mineralization metrics vs Fx group: no difference
  BMT and mineralization metrics vs XFx group: significant increase
  Vessel Number, Thickness and Separation: significant restorative effects
  increase in bony unions vs XFx: 42%
[4]; 40-day healing, p=0.029
  Vessel Volume vs XFx: significant restoration to control level
[4]; 40-day healing, Fx 100%, XFx 25%
  bony union: 67%
[4]; histomorphometry, p=0.000
  empty lacunae vs XFx: decrease
  osteocyte count vs XFx: significant restoration to control level
